Consider five compounds from paper PMC3646298 (Pharmaceutical research, 2012).

Data set [1] concerns PC-3/TxR. Description: Apoptosis. Type of data set: cell-based, human. The conditions noted are these: 0.8–600 nmol/L, 24 h.
For a further data set, the system named is Du-145. The conditions noted are these: read-out: Cytotoxicity IC50, ref Ahn et al., MCT 9:2959, 2010 ([33]); cited from earlier work.
The test system of the next data set is PC-3. In words: Apoptosis. The conditions noted are these: PC-3, 0.8–600 nmol/L, 24 h. Type of data set: cell-based, human.
Another data set concerns LNCaP. The conditions noted are these: read-out: Cytotoxicity IC50, ref Ahn et al., MCT 9:2959, 2010 ([33]); cited from earlier work.
A further data set deals with PC-3 tumors. In words: PC-3 tumor xenograft study. Type of data set: in vivo, nude mice. The conditions noted are these: PC-3 xenograft, day 1 and 9, end point day 19.
The subject of data set [2] is PC-3/TxR. In words: SRB cytotoxicity assay in paclitaxel-resistant PC-3/TxR. Type of data set: cell-based, human. A general note: The SRB assay estimates cell density from bound dye.
Another data set relates to PC-3/TxR tumors. Description: Paclitaxel-resistant PC-3/TxR tumor xenograft study. Type of data set: in vivo, nude mice. The conditions noted are these: for Body weight End / TGI / Body weight Start: PC-3/TxR xenograft.
Data set [3] concerns PPC-1. The conditions noted are these: read-out: Cytotoxicity IC50, ref Ahn et al., MCT 9:2959, 2010 ([33]); cited from earlier work.
The target of data set [4] is colchicine-binding site on tubulin (Sus scrofa, UniProt P02550+P02554). In words: Competitive mass spectrometry binding assay. More on the design: species or system porcine. The settings on record: tubulin 1 mg/mL, competitor 0.2–200 μM.
The nature of data set [5]: in vivo. The conditions noted are these: female, beagle, dog, plasma, po, 5 mg/kg.
The nature of data set [6]: Paclitaxel-resistant PC-3/TxR tumor xenograft study. Type of data set: in vivo, nude mice. The settings on record: male, athymic nude, mouse, tumor, po, 30 mg/kg.
A short description of data set [7]: in vivo. The settings on record: male (mice), female (rats, dogs), ICR (mouse), Sprague-Dawley (rat), beagle (dog), po.
In a further data set the test system is U87MG. In words: SRB cytotoxicity assay in U87MG glioma. Type of data set: cell-based, human. The conditions noted are these: read-out: Cytotoxicity IC50, 96 h treatment, mean ± SD, N=3.
The nature of a further data set: in vitro. The settings on record: human, Caco-2.
Data set [8] in a line: Pharmacokinetic study in rats. The conditions noted are these: female, Sprague-Dawley, rat, plasma, po, 10 mg/kg.
The subject of data set [9] is PPC-1. Description: SRB cytotoxicity assay in PPC-1. Type of data set: cell-based. The conditions noted are these: Homo sapiens, PPC-1, 96 h, read-out: Cytotoxicity IC50.
The conditions of data set [10]: cited from earlier work.
The mark [11] stands for this setting: IV 10 mg/kg, day 1 and 9, end point day 19.
Setting [12] is: IV 20 mg/kg, day 1 and 9, end point day 19.
Where [13] appears, read: PO 10 mg/kg, b.i.d×5/w, end point day 26.

Like-named read-outs stand apart in the source and are kept apart here.

One may read the IC50 as the concentration that gives 50% inhibition. As a reminder, the TGI is the reduction of tumour growth relative to the control group. Read a low TGI as a weaker effect on the tumour. Consider `CC(=O)O[C@@]12CO[C@@H]1C[C@H](O)[C@@]1(C)C(=O)[C@H](O)C3=C(C)[C@@H](OC(=O)[C@H](O)[C@@H](NC(=O)OC(C)(C)C)c4ccccc4)C[C@@](O)([C@@H](OC(=O)c4ccccc4)[C@H]21)C3(C)C` [Docetaxel], for which the “induction of cell apoptosis (DNA histone complex formation)” value is listed as “substantially weaker” in the data set on PC-3/TxR [1] and “potently induced cell apoptosis” with PC-3. Also, the IC50 was 5.2 ± 1 nM in the data set with Du-145; 4.7 ± 1.3 nM with LNCaP; 18 ± 0.7 nM in the data set with PC-3/TxR [2] (Homo sapiens, PC3-TxR, 96 h, read-out: Cytotoxicity IC50); 2.7 ± 1 nM with PPC-1 [3]. For the same compound, the “Body weight End” value stood at 24 ± 2 g in the data set on PC-3 tumors (IV 10 mg/kg), 24 ± 3 g in the data set with PC-3 tumors (IV 20 mg/kg), 25 ± 2 g in the data set on PC-3/TxR tumors (setting [11]) and 25 ± 4 g in the data set with PC-3/TxR tumors (setting [12]). Besides, the “Resistance factor (IC50 in PC-3/TxR compared with PC-3)” value with PC-3/TxR [2] was 15. The values for the TGI in the data set on PC-3/TxR tumors (setting [11]) and in the data set on PC-3/TxR tumors (setting [12]) were 14% and 56%, respectively.
As a reminder, the bioavailability is the share of a dose that reaches the circulation, judged against a reference dose that is usually intravenous. Higher therefore signals good availability. For orientation: Papp A→B means how fast a substance crosses the layer from the apical side. The low end stands for poor permeation, the high end for ready permeation. Turning to `COc1cc(C(=O)c2csc(Nc3ccc4[nH]ccc4c3)n2)cc(OC)c1OC` [IAT, (2-(1H-indol-5-ylamino)-thiazol-4-yl)(3,4,5-trimethoxyphenyl)methanone], the “competition with colchicine for tubulin binding” value in data set [4] is reported as “competed effectively with colchicine for tubulin binding”. Also, the bioavailability in the data set “in vivo [5]” is 36%; in the data set “in vivo [7]” it was 24 to 36%; in data set [8], 24%. For the same compound, the “induction of cell apoptosis (DNA histone complex formation)” value with PC-3/TxR [1] and in the data set with PC-3 was “equally potent in their ability to induce cell apoptosis” throughout. Also, the “Body weight Start” value in the data set with PC-3/TxR tumors (PO 10 mg/kg, b.i.d×5/w) was 29 ± 2 g; in the data set on PC-3/TxR tumors (PO 30 mg/kg, b.i.d×5/w), 29 ± 3 g. In addition, the “Body weight End” value was 26 ± 3 g with PC-3/TxR tumors (setting [13]) and 30 ± 2 g in the data set on PC-3/TxR tumors (PO 30 mg/kg, b.i.d×5/w, end point day 26). Further, in the data set on PC-3/TxR tumors (setting [13]), the TGI worked out at 59%. Also, the Tumor growth inhibition entry with PC-3/TxR tumors (paclitaxel-resistant prostate cancer xenograft, treated orally at doses of 3–30 mg/kg) is recorded as “greater than 100%”. The Kp at 1 h in [6] was found to be 0.43 ± 0.33. For the same compound, the IC50 with U87MG was 22 ± 30 nM. Besides, the Papp A→B in the data set “in vitro” stood at 99 ×10⁻⁶ cm/s.
Consider `CC(=O)O[C@H]1C(=O)[C@@]2(C)[C@H]([C@H](OC(=O)c3ccccc3)[C@]3(O)C[C@H](OC(=O)[C@H](O)[C@@H](NC(=O)c4ccccc4)c4ccccc4)C(C)=C1C3(C)C)[C@]1(OC(C)=O)CO[C@@H]1C[C@@H]2O` [Paclitaxel], for which the IC50 in the data set on PPC-1 [9] stood at 23 ± 0.8 nM.
Regarding `COc1cc(C(=O)c2csc(-c3ccccc3)n2)cc(OC)c1OC` [SMART-H, 4-(3,4,5-trimethoxybenzoyl)-2-phenyl-thiazole], in data set [10], the neurotoxicity entry is “did not find any signs of obvious neurotoxicity”.
Consider `CC[C@]1(O)C[C@@H]2CN(CCc3c([nH]c4ccccc34)[C@@](C(=O)OC)(c3cc4c(cc3OC)N(C)[C@H]3[C@@](O)(C(=O)OC)[C@H](OC(C)=O)[C@]5(CC)C=CCN6CC[C@]43[C@@H]65)C2)C1` [Vinblastine], for which, in data set [4], the “competition with colchicine for tubulin binding” value was “did not inhibit colchicine binding to tubulin”.
